According to article PMC3764403 (Chemistry & Biology, 2008):
Where two headings read alike, the source gives them in different places. Numbered stars: 1 amine (or outer) side, 2 acyl side, 3 side chain; on linkers, the order of the positions; unused ones are H or OH. Square brackets hold non-standard residues; d marks the D form. Side chains are listed from the residue outwards. Peptide text beside a SMILES is read from it. NMeF = CN[C@@H](Cc1ccccc1)C(=O)O; CO = O=C([*:1])[*:2]

Legend:
[1] = molecular target: T1, chitinase B1 from Aspergillus fumigatus (AfChiB1) (Aspergillus fumigatus, UniProt Q873X9); test: biochemical; details: for AfChiB1 BEI (Binding Efficiency Index): BEI = −log(Ki)/M, M in kilodaltons, Ki derived from IC50 by Cheng and Prusoff equation
T1 construct: made in house; host or cells: Escherichia coli
Description: Chitinase activities for AfChiB1 ([Rao et al., 2005b]), hCHT ([Boot et al., 1998]), and total chitinase activity in lung homogenate samples from a mouse model of chronic asthma were determined as previously described ([Schüttelkopf et al., 2006]). […] AfChiB1 (2 nM) was incubated with 20 μM 4-methylumbelliferyl-β-D-N-N'-diacetylchitobiose (4MU-GlcNAc2; Sigma) and 0.25 mg/ml bovine serum albumin in 100 mM citric acid, 200 mM Na2HPO4 (pH 5.5). hCHT (0.3 nM) was incubated with 22 μM 4-methylumbelliferyl-β-D-N-N'-triacetylchitobiose (4MU-GlcNAc3; Sigma) and 0.25 mg/ml bovine serum albumin in 100 mM citric acid, 200 mM Na2HPO4 (pH 5.2). Lung homogenate (39 μg/ml) (obtained as described previously [[Schüttelkopf et al., 2006]]) was incubated with 20 μM 4MU-GlcNAc2 in 100 mM citric acid, 200 mM Na2HPO4 (pH 5.5). All reactions were run for 10 min at 37°C, and liberated 4-methylumbelliferone (4MU) was quantified after addition of 25 μl 3 M glycine-NaOH (pH 10.6) using an Flx 800 microtiterplate fluorescence reader (Bio-Tek instruments) with 40 nm slits and excitation and emission wavelengths of 360 nm and 460 nm, respectively.

[2] = molecular target: T1, chitinase B1 from Aspergillus fumigatus (AfChiB1); details: Table 1, argifin value reported previously, ref Rao et al., 2005b, Dixon et al.; cited from earlier work
[3] = molecular target: chitinase B from Serratia marcescens; parameters: method as in Houston et al., 2002b; details: ref Houston et al., 2002b; read-out: IC50 against chitinase B from Serratia marcescens; cited from earlier work

Molecule | AfChiB1 BEI (Binding Efficiency Index) [1] | IC50 [2] [µM] | IC50 [3] [µM] | IC50 ([1]; read-out: IC50 against AfChiB1) [µM]
CNC(=N)NC(=O)NC [Dimethylguanylurea, dimethylguanylurea] | 27.7 | – | – | –
argifin | 11.7 | 0.027 | 33 | –
CNC(=O)NC(=N)NCCCC(NC(C)=O)C(=O)NC (stereo not shown) [Monopeptide] | 15.3 | – | – | 81
CNC(=O)NC(=N)NCCC[C@H](NC(C)=O)C(=O)N(C)[C@@H](Cc1ccccc1)C(=O)N[C@@H](CC(=O)O)C(=O)O [Tripeptide] (Ac-Arg([CO-NHMe])-[NMeF]-Asp-OH) | 10.2 | – | – | –
